The test concerns the target T1, CDK2 (Homo sapiens, UniProt P24941).
T1 construct: endogenous in cells; host or cells: OVCAR3 cells
Put plainly: Phospho-RB measurement in OVCAR3 cells (HTRF phospho-RB S807/811). To be noted: phosphorylation of RB protein at S807/811, HTRF, 24 h compound treatment, 0.3 to 10,000 nM, read-out: pRb (uM). In kind it is cell-based. An outline of the steps:
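IC50 values come from four-parameter logistic fits of the DMSO-normalised 665/620 nm TR-FRET ratio for phospho-RB (S807/811). Antibody detection ran 4 h at room temperature.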
On the technique in general: Time-resolved FRET reads energy transfer from a long-lived donor to a nearby acceptor.
`O=S1(=O)CC2(CC(Nc3nccc(-c4sc(C5(C(F)(F)F)CCC5)nc4-c4cccc(NS(=O)(=O)c5c(F)cccc5C(F)(F)F)c4F)n3)C2)C1` [Example 84, N-(3-(5-(2-((2,2-dioxido-2-thiaspiro[3.3]heptan-6-yl)amino)-pyrimidin-4-yl)-2-(1-(trifluoromethyl)cyclobutyl)thiazol-4-yl)-2-fluorophenyl)-2-fluoro-6-(trifluoromethyl)benzenesulfonamide]: the IC50 was 0.03 µM.

For `O=S1(=O)CC2(CC(Nc3nccc(-c4sc(C5(C(F)(F)F)CC5)nc4-c4cccc(NS(=O)(=O)c5c(F)cccc5F)c4F)n3)C2)C1` [Example 89, N-(3-(5-(2-((2,2-dioxido-2-thiaspiro[3.3]heptan-6-yl)amino)-pyrimidin-4-yl)-2-(1-(trifluoromethyl)cyclopropyl)thiazol-4-yl)-2-fluorophenyl)-2,6-difluorobenzenesulfonamide], the IC50 came out at 0.12 µM.

On to `CN1CC2CCC(C1)N2c1nc(-c2cccc(NS(=O)(=O)c3c(F)cccc3F)c2F)c(-c2ccnc(NC3CC4(C3)CS(=O)(=O)C4)n2)s1` [Example 135, N-(3-(5-(2-((2,2-dioxido-2-thiaspiro[3.3]heptan-6-yl)amino)-pyrimidin-4-yl)-2-(3-methyl-3,8-diazabicyclo[3.2.1]octan-8-yl)thiazol-4-yl)-2-fluorophenyl)-2,6-difluorobenzenesulfonamide], for which the IC50 stood at 0.07 µM.

Consider `O=S1(=O)CC2(CC(Nc3nccc(-c4sc(N5C6CCC5CN(C5CC5)C6)nc4-c4cccc(NS(=O)(=O)c5c(F)cccc5C(F)(F)F)c4F)n3)C2)C1` [Example 82, N-(3-(2-(3-cyclopropyl-3,8-diazabicyclo[3.2.1]octan-8-yl)-5-(2-((2,2-dioxido-2-thiaspiro[3.3]heptan-6-yl)amino)pyrimidin-4-yl)thiazol-4-yl)-2-fluorophenyl)-2-fluoro-6-(trifluoromethyl)benzenesulfonamide], for which the IC50 was 0.13 µM.

For `O=S1(=O)CC2(CC(Nc3nccc(-c4sc(N5C6CCC5CN(CCC(F)(F)F)C6)nc4-c4cccc(NS(=O)(=O)c5c(F)cccc5F)c4F)n3)C2)C1` [Example 142, N-(3-(5-(2-((2,2-dioxido-2-thiaspiro[3.3]heptan-6-yl)amino)-pyrimidin-4-yl)-2-(3-(3,3,3-trifluoropropyl)-3,8-diazabicyclo-[3.2.1]octan-8-yl)thiazol-4-yl)-2-fluorophenyl)-2,6-difluorobenzenesulfonamide], the IC50 turned out to be 0.32 µM.

In the case of `CC1(O)CC(N2CC3CCC(C2)N3c2nc(-c3cccc(NS(=O)(=O)c4c(F)cccc4F)c3F)c(-c3ccnc(NC4CC5(C4)CS(=O)(=O)C5)n3)s2)C1` (centres unmarked) [Example 46, N-(3-(5-(2-((2,2-dioxido-2-thiaspiro[3.3]heptan-6-yl)amino)-pyrimidin-4-yl)-2-(3-(3-hydroxy-3-methylcyclobutyl)-3,8-diazabicyclo[3.2.1]octan-8-yl)thiazol-4-yl)-2-fluorophenyl)-2,6-difluorobenzenesulfonamide], the IC50 came out at 1.36 µM.

`O=S1(=O)CC2(CC(Nc3nccc(-c4sc(C56CC(Cl)(C5)C6)nc4-c4cccc(NS(=O)(=O)c5c(F)cccc5C(F)(F)F)c4F)n3)C2)C1` [Example 150, N-(3-(2-(3-chlorobicyclo[1.1.1]pentan-1-yl)-5-(2-((2,2-dioxido-2-thiaspiro[3.3]heptan-6-yl)amino)pyrimidin-4-yl)thiazol-4-yl)-2-fluorophenyl)-2-fluoro-6-(trifluoromethyl)benzenesulfonamide]: the IC50 was 0.17 µM.

In the case of `CN1C2CCC1CN(c1nc(-c3cccc(NS(=O)(=O)c4c(F)cccc4F)c3F)c(-c3ccnc(NC4CC5(C4)CS(=O)(=O)C5)n3)s1)C2` [Example 23, N-(3-(5-(2-((2,2-dioxido-2-thiaspiro[3.3]heptan-6-yl)amino)pyrimidin-4-yl)-2-(8-methyl-3,8-diazabicyclo[3.2.1]octan-3-yl)thiazol-4-yl)-2-fluorophenyl)-2,6-difluorobenzenesulfonamide], the IC50 is 1.74 µM.

Consider `O=S1(=O)CC2(CC(Nc3nccc(-c4sc(N5CC6CCC5CC6)nc4-c4cccc(NS(=O)(=O)c5c(F)cccc5F)c4F)n3)C2)C1` [Example 18, N-(3-(2-(2-azabicyclo[2.2.2]octan-2-yl)-5-(2-((2,2-dioxido-2-thiaspiro[3.3]heptan-6-yl)amino)pyrimidin-4-yl)thiazol-4-yl)-2-fluorophenyl)-2,6-difluorobenzenesulfonamide], for which the IC50 is 0.079 µM.

Regarding `[2H]C([2H])([2H])N1CC2CCC(C1)N2c1nc(-c2cccc(NS(=O)(=O)c3c(F)cccc3F)c2F)c(-c2ccnc(NC3CC4(C3)CS(=O)(=O)C4)n2)s1` [Example 137, N-(3-(5-(2-((2,2-dioxido-2-thiaspiro[3.3]heptan-6-yl)amino)-pyrimidin-4-yl)-2-(3-(methyl-d3)-3,8-diazabicyclo[3.2.1]octan-8-yl)thiazol-4-yl)-2-fluorophenyl)-2,6-difluorobenzenesulfonamide], the IC50 was determined as 0.1 µM.

As for `C[C@H]1COC[C@H](C)N1c1nc(-c2cccc(NS(=O)(=O)c3c(F)cccc3C(F)(F)F)c2F)c(-c2ccnc(NC3CC4(C3)CS(=O)(=O)C4)n2)s1` [Example 79, N-(3-(2-((3S,5S)-3,5-dimethylmorpholino)-5-(2-((2,2-dioxido-2-thiaspiro[3.3]heptan-6-yl)amino)pyrimidin-4-yl)thiazol-4-yl)-2-fluorophenyl)-2-fluoro-6-(trifluoromethyl)benzenesulfonamide], the IC50 is 0.06 µM.

With `O=S1(=O)CC2(CC(Nc3nccc(-c4sc(C56CC(C(F)F)(C5)C6)nc4-c4cccc(NS(=O)(=O)c5c(F)cccc5C(F)(F)F)c4F)n3)C2)C1` [Example 92, N-(3-(2-(3-(difluoromethyl)bicyclo[1.1.1]pentan-1-yl)-5-(2-((2,2-dioxido-2-thiaspiro[3.3]heptan-6-yl)amino)pyrimidin-4-yl)thiazol-4-yl)-2-fluorophenyl)-2-fluoro-6-(trifluoromethyl)benzenesulfonamide], the IC50 was 0.04 µM.

As to `O=S1(=O)CC2C(C1)C2Nc1nccc(-c2sc(C34CC(C3)C4)nc2-c2cccc(NS(=O)(=O)c3c(F)cccc3F)c2F)n1` (centres unmarked) [Example 93, N-(3-(2-(bicyclo[1.1.1]pentan-1-yl)-5-(2-((3,3-dioxido-3-thiabicyclo[3.1.0]hexan-6-yl)amino)pyrimidin-4-yl)thiazol-4-yl)-2-fluorophenyl)-2,6-difluorobenzenesulfonamide], the IC50 came to 0.04 µM.

Consider `C[C@H]1COC[C@H](C)N1c1nc(-c2cccc(NS(=O)(=O)c3c(F)cccc3F)c2F)c(-c2ccnc(NC3CC4(C3)CS(=O)(=O)C4)n2)s1` [Example 4, N-(3-(2-((3S,5S)-3,5-dimethylmorpholino)-5-(2-((2,2-dioxido-2-thiaspiro[3.3]heptan-6-yl)amino)pyrimidin-4-yl)thiazol-4-yl)-2-fluorophenyl)-2,6-difluorobenzenesulfonamide], for which the IC50 is 0.13 µM.

On to `O=S1(=O)C[C@@H]2[C@H](C1)[C@H]2Nc1nccc(-c2sc(N3C4CCC3CN(C3CC(F)(F)C3)C4)nc2-c2cccc(NS(=O)(=O)c3c(F)cccc3OC(F)F)c2F)n1` [Example 123, N-(3-(2-(3-(3,3-difluorocyclobutyl)-3,8-diazabicyclo[3.2.1]octan-8-yl)-5-(2-(((1R,5S,6r)-3,3-dioxido-3-thiabicyclo[3.1.0]hexan-6-yl)amino)pyrimidin-4-yl)thiazol-4-yl)-2-fluorophenyl)-2-(difluoromethoxy)-6-fluorobenzenesulfonamide], for which the IC50 came out at 0.17 µM.

In the case of `O=S1(=O)CC2(CC(Nc3nccc(-c4sc(C56CCC(CC5)C6)nc4-c4cccc(NS(=O)(=O)c5c(F)cccc5F)c4F)n3)C2)C1` [Example 32, N-(3-(2-(bicyclo[2.2.1]heptan-1-yl)-5-(2-((2,2-dioxido-2-thiaspiro[3.3]heptan-6-yl)amino)pyrimidin-4-yl)thiazol-4-yl)-2-fluorophenyl)-2,6-difluorobenzenesulfonamide], the IC50 was determined as 0.08 µM.

As for `O=S1(=O)CC2(CC(Nc3nccc(-c4sc(N5C6CCC5CC(F)(F)C6)nc4-c4cccc(NS(=O)(=O)c5c(F)cccc5F)c4F)n3)C2)C1` [Example 12, N-(3-(2-(3,3-difluoro-8-azabicyclo[3.2.1]octan-8-yl)-5-(2-((2,2-dioxido-2-thiaspiro[3.3]heptan-6-yl)amino)pyrimidin-4-yl)thiazol-4-yl)-2-fluorophenyl)-2,6-difluorobenzenesulfonamide], the IC50 came out at 0.068 µM.

For `CN1CC2CCC(C1)N2c1nc(-c2cccc(NS(=O)(=O)c3c(F)cccc3OC(F)F)c2F)c(-c2ccnc(NC3CC4(C3)CS(=O)(=O)C4)n2)s1` [Example 66, 2-(difluoromethoxy)-N-(3-(5-(2-((2,2-dioxido-2-thiaspiro[3.3]-heptan-6-yl)amino)pyrimidin-4-yl)-2-(3-methyl-3,8-diazabicyclo[3.2.1]octan-8-yl)thiazol-4-yl)-2-fluorophenyl)-6-fluorobenzenesulfonamide], the IC50 worked out at 0.15 µM.

Take `O=S1(=O)CC2(CC(Nc3nccc(-c4sc(N5C6CCC5CN(C5CCC5)C6)nc4-c4cccc(NS(=O)(=O)c5c(F)cccc5F)c4F)n3)C2)C1` [Example 52, N-(3-(2-(3-cyclobutyl-3,8-diazabicyclo[3.2.1]octan-8-yl)-5-(2-((2,2-dioxido-2-thiaspiro[3.3]heptan-6-yl)amino)pyrimidin-4-yl)thiazol-4-yl)-2-fluorophenyl)-2,6-difluorobenzenesulfonamide]: the IC50 amounted to 0.08 µM.

On to `O=S1(=O)C[C@@H]2[C@H](C1)[C@@H]2Nc1nccc(-c2sc(C34CC(C3)C4)nc2-c2cccc(NS(=O)(=O)c3c(F)cccc3C(F)(F)F)c2F)n1` [Example 102, N-(3-(2-(bicyclo[1.1.1]pentan-1-yl)-5-(2-(((1R,5S,6s)-3,3-dioxido-3-thiabicyclo[3.1.0]hexan-6-yl)amino)pyrimidin-4-yl)thiazol-4-yl)-2-fluorophenyl)-2-fluoro-6-(trifluoromethyl)benzenesulfonamide], for which the IC50 is 0.19 µM.
